Test results taken from US20250237650A1 (priority 2021, published 2025).

How the values were obtained:
[1] = tested on: SARS-CoV-2 spike
[2] = biological target: SARS-CoV-2 spike; type: binding; conditions: for Kd: pH 7.4
[3] = biological target: Env (monomeric gp140; Clade CRF07_BC); assay: BLI of HS/HEP to monomeric Env; set-up: species or system HIV-1; conditions: steady-state analysis of BLI data; read-out: Estimated binding affinity (KD)
[4] = biological target: trimeric Env (Group M; Clade C); assay: BLI of HS to trimeric Env; set-up: species or system HIV-1; conditions: read-out: estimated binding affinity
[5] = tested on: variants of Env (trimeric gp140; Clade C, B, A); assay: BLI of HS to variants of trimeric Env; type: binding, HIV-1

For heparan sulfate [HS15], the “LFSA signal intensity of capture probes” value [1] was “highest signal intensity”.

chondroitin sulfate [CS25] showed a Kd [2] of 17.9 nM.

For heparin [reference compound], the “HEP binding affinity to spike as ionic strength increased” value [2] was “dramatically decreased” and the Kd [3] was 209 nM.

For heparin [HEP27, reference compound], the “LFSA signal intensity of capture probes” value [1] was “lower signal intensity”.

heparin [HEP15, reference compound] was tested, and the Kd [2] was 215 nM.

heparan sulfate [HS] was tested, and the Kd [3] was 142 nM, the Kd [4] was 28 nM and the “Binding affinity of HS to all the subtypes” value [5] was “in the nanomolar range”.
